Data published in ChEMBL document CHEMBL1201862, “PubChem BioAssay data set” (2004).
Calls of active or inactive are those of the source. For most assays here, no stated cut-off is given here; in the data, actives have a measured IC50 and inactives only a lower limit.

What was measured:
HEK293 [1] = assay: membrane integrity loss in HEK cells – cell-based, fluorescence, cytotoxicity control for IDE activator project, dose response (AID 588440); assay type: functional; details: Homo sapiens;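 further: cytotoxicity by LDH release measuring loss of membrane integrity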
Insulin-degrading enzyme [2] = biological target: T1, Insulin-degrading enzyme (Homo sapiens, UniProt P14735); assay: recombinant IDE activation, cell-free – biochemical, fluorescence polarization, counter-screen for IDE activator project, dose response (AID 588681)
T1 sequence (P14735 whole entry): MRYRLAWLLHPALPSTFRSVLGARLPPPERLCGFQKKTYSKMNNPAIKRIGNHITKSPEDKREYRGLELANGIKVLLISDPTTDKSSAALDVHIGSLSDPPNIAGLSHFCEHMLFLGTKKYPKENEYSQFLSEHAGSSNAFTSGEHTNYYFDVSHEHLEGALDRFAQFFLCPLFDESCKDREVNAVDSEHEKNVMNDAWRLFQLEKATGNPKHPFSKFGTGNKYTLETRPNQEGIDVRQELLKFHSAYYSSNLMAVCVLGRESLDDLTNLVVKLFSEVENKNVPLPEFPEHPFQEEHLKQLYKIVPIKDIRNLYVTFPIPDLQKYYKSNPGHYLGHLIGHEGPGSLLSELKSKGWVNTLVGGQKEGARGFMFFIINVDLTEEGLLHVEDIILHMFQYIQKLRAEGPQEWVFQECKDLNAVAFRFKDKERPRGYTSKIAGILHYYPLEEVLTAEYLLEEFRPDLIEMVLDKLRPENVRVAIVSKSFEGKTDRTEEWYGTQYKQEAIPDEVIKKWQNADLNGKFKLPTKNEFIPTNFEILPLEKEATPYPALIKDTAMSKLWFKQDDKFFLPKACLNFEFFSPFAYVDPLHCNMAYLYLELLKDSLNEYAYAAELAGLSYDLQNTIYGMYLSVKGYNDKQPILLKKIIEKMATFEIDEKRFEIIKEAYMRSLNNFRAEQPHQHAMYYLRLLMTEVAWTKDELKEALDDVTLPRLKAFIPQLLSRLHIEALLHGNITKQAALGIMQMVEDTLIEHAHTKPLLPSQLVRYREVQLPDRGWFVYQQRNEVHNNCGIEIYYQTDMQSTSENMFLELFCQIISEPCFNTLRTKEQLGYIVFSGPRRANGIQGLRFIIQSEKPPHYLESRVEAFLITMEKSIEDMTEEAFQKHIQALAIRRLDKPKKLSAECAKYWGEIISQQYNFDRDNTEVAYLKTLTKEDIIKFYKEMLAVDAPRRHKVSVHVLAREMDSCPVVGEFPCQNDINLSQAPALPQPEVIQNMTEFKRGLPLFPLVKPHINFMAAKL

HEK293 [3] = assay: optical interference in Abeta FP readout, dose response, artefact control for IDE activator project, biochemical, fluorescence polarization (AID 588442); assay type: functional, cell-based; details: Homo sapiens
Insulin-degrading enzyme [4] = biological target: T1, Insulin-degrading enzyme; assay: cellular IDE activation of Abeta substrate cleavage – fluorescence polarization, HEK cells, dose response (AID 588439); assay type: functional, cell-based
[5] = biological target: T2, Sentrin-specific protease 6 (Homo sapiens, UniProt Q9GZR1); assay: inhibition of human SENP6 catalytic domain – biochemical, luminescence, set 2, SAR follow-up (AID 588598); assay type: functional
T2 sequence (Q9GZR1 whole entry): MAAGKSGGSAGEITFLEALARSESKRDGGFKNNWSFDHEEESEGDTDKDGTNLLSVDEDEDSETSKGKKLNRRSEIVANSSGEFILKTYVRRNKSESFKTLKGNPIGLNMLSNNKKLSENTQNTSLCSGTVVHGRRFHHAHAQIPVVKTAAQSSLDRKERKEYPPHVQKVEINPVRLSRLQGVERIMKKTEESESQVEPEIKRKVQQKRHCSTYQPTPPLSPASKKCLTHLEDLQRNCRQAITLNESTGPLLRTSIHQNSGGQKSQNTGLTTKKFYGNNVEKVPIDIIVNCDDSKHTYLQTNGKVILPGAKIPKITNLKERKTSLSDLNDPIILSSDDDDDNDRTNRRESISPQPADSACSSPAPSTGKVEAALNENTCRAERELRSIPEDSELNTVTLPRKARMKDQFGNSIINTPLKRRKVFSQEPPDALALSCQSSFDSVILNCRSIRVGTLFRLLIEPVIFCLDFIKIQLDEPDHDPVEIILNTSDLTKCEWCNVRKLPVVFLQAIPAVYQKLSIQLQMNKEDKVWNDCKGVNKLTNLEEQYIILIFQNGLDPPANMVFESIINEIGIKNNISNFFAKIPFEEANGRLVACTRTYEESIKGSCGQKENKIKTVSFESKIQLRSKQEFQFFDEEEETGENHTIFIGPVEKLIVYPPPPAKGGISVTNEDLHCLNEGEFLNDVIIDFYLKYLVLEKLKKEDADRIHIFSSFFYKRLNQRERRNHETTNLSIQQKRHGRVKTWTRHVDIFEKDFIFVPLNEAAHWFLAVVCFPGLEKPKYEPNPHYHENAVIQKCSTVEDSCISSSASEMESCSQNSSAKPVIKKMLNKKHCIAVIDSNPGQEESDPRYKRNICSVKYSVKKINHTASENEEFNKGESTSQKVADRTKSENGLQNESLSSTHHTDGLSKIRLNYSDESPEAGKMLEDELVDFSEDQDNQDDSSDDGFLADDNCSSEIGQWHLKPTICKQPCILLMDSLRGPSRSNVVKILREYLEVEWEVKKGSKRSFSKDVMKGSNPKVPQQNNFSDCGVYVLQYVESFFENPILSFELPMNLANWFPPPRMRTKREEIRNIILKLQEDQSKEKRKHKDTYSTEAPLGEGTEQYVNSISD

[6] = biological target: T3, Sentrin-specific protease 7 (Homo sapiens, UniProt Q9BQF6); assay: inhibition of human SENP7 cleavage activity – biochemical, luminescence, SAR follow-up (AID 504497); assay type: functional
T3 sequence (Q9BQF6 whole entry): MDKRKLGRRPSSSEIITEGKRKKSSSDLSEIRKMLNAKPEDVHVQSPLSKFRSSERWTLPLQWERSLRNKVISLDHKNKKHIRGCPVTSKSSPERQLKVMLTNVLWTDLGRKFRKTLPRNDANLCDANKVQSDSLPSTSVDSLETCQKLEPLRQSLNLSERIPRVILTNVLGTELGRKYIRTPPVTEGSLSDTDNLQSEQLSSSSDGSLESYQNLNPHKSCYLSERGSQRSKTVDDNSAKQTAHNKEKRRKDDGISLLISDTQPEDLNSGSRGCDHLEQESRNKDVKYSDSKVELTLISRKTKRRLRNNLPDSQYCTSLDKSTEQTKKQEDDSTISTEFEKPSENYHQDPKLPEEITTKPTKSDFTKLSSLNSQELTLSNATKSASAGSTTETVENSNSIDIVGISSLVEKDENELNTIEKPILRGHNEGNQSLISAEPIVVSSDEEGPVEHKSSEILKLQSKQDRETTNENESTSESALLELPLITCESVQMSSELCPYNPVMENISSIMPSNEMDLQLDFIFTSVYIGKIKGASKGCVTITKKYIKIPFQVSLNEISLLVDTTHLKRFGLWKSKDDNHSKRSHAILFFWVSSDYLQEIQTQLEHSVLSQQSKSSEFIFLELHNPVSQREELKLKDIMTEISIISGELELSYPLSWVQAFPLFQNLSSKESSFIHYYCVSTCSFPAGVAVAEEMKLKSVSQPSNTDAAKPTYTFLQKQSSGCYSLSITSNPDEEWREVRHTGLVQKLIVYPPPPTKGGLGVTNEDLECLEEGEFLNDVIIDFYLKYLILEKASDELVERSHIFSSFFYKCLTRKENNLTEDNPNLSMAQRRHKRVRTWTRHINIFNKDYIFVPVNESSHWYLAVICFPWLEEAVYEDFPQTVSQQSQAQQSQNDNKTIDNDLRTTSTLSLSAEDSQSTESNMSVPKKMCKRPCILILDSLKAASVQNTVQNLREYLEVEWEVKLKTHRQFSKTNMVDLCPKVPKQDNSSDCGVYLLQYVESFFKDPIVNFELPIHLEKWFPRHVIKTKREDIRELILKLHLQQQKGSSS

[7] = biological target: T3, Sentrin-specific protease 7; assay: inhibition of human SENP7 cleavage activity – biochemical, luminescence, set 2, SAR follow-up (AID 588600); assay type: functional
Caspase-3 [8] = biological target: T4, Caspase-3 (Homo sapiens, UniProt P42574); assay: inhibition of recombinant caspase-3 activity – biochemical, luminescence, set 2, selectivity assay for SENP protease inhibitor project, SAR follow-up (AID 588599); assay type: functional
T4 sequence (P42574 whole entry): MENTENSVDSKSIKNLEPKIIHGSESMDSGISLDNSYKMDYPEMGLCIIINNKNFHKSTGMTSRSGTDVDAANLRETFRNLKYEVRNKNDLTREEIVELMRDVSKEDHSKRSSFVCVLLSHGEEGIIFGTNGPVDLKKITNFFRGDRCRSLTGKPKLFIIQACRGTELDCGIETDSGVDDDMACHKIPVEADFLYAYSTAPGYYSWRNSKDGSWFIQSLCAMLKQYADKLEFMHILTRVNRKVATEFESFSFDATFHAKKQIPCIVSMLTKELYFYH

Caspase-3 [9] = biological target: T4, Caspase-3; assay: SAR Analysis of small molecule inhibitors of Sentrin-specific proteases (SENPs) using a Caspase-3 Selectivity assay. [Related pubchem assays (depositor defined):AID2540, AID2599, AID434973, AID489001]; assay type: functional
[10] = biological target: T5, Sentrin-specific protease 8 (Homo sapiens, UniProt Q96LD8); assay: inhibition of human SENP8 cleavage activity – biochemical, luminescence, SAR follow-up (AID 504501); assay type: functional
T5 sequence (Q96LD8 whole entry): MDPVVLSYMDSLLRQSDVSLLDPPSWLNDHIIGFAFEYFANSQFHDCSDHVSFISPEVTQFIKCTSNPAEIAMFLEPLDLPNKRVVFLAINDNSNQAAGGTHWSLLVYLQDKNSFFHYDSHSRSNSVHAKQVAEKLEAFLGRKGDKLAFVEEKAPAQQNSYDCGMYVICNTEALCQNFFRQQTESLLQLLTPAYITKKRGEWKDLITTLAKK

[11] = biological target: T2, Sentrin-specific protease 6; assay: SAR Analysis of small molecule inhibitors of Sentrin-specific protease 6 (SENP6) using a Luminescent assay. [Related pubchem assays (depositor defined):AID2582, AID2599]; assay type: functional
[12] = biological target: T5, Sentrin-specific protease 8; assay: inhibition of sentrin protease 8 – biochemical, luminescence, set 2, SAR follow-up (AID 588601); assay type: functional
[13] = biological target: T6, Ubiquitin-conjugating enzyme E2 N (Homo sapiens, UniProt P61088); assay type: functional
T6 sequence (P61088 whole entry): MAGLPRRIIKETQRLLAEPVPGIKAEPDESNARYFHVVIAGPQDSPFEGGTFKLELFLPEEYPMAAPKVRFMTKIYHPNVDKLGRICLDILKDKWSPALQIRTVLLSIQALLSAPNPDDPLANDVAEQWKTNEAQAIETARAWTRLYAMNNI

Bcl-2-related protein A1 = biological target: T7, Bcl-2-related protein A1 (Mus musculus, UniProt Q07440); assay type: functional;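 further: confirmatory dose–response counterscreen on Bfl-1, used to check hits from a UBC13 polyubiquitin inhibitor campaign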
T7 sequence (Q07440 whole entry): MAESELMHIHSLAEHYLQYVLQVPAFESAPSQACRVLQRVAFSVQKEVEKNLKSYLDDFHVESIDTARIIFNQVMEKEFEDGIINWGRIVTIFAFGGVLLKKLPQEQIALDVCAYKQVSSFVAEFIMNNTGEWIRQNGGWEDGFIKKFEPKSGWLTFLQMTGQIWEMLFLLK

[14] = biological target: T6, Ubiquitin-conjugating enzyme E2 N; assay type: functional; remark: listed apart in the source

In the case of `O=C(c1ccccc1)C1NC1c1ccccc1` (configuration not stated), the IC50 (HEK293 [1]) was > 89.3 µM (inactive), the EC50 (Insulin-degrading enzyme [2]) was > 54.7 µM (inactive) and the EC50 (HEK293 [3]) was > 54.7 µM (inactive). The EC50 (Insulin-degrading enzyme [4]) was > 54.7 µM (inactive).
With `CCCCc1ccc2nc(NC(=O)c3cccn3C)sc2c1` the IC50 [5] was 0.938 µM (active), the IC50 [6] was 0.92 µM (active) and the IC50 [7] was 0.987 µM (active). For the same compound, the IC50 (Caspase-3 [8]) was 0.749 µM (active), the IC50 (Caspase-3 [9]) was 0.72 µM (active) and the IC50 [10] was 0.81 µM (active). The IC50 [11] was 0.79 µM (active) and the IC50 [12] was 0.944 µM (active).
With `Cc1ccc2nc(NC(=O)c3cccc(S(=O)(=O)NCC4CCCO4)c3)sc2c1` (configuration not stated) the IC50 [5] was > 99 µM (inactive), the IC50 [7] was > 99 µM (inactive) and the IC50 (Caspase-3 [8]) was > 99 µM (inactive). For the same compound, the IC50 [12] was > 99 µM (inactive).
`O=C(CCc1ccccc1)NNc1cc(N2CCOCC2)nc(N2CCOCC2)n1` was tested, and the IC50 [6] was > 99 µM (inactive), the IC50 (Caspase-3 [9]) was > 99 µM (inactive) and the IC50 [10] was > 99 µM (inactive). The IC50 [11] was > 99 µM (inactive).
For `C#CCOCCOCCOCCNc1nc(N2CCN(C(=O)CCCCCCCCCCNC(=O)[C@H](CCCCN)n3cc(C[C@@H](C)CC)nn3)CC2)nc(N2CCN(C(=O)CCCCCCCCCCNC(=O)[C@H](CCCN=C(N)N)n3cc(C[C@@H](C)CC)nn3)CC2)n1`, the IC50 (HEK293 [1]) was 2.17 µM (active), the IC50 [13] was 2 µM (active) and the EC50 (Insulin-degrading enzyme [2]) was > 2.03 µM (active). The EC50 (HEK293 [3]) was > 54.7 µM (inactive), the EC50 (Insulin-degrading enzyme [4]) was > 2.03 µM (active) and the IC50 (Bcl-2-related protein A1) was 4.6 µM (active). For the same compound, the IC50 [14] was 1.44 µM (active).
